Measured values from patent US20120263794A1, “TREATMENT OF EYE DISEASES USING ENCAPSULATED CELLS ENCODING AND SECRETING A NEUROPROTECTIVE FACTOR AND/OR AN ANTI-ANGIOGENIC FACTOR” (BIOCOMPATIBLE UK LTD., priority 2009, published 2012).
Ends that are not written are not given here.

What was measured:
DPP-IV = molecular target: T1, DPP-IV (Homo sapiens, UniProt P27487); assay: In vitro human plasma stability of GLP-1CM peptides; format: in vitro ADME; settings: 20 ng/ml, 37° C., 5% CO2, 3 hours, in contrast to native GLP-1(7-37)
T1 construct: incubated at concentrations of 20 ng/ml with human plasma; from tissue; host or cells: human plasma
T1 sequence (P27487 whole entry): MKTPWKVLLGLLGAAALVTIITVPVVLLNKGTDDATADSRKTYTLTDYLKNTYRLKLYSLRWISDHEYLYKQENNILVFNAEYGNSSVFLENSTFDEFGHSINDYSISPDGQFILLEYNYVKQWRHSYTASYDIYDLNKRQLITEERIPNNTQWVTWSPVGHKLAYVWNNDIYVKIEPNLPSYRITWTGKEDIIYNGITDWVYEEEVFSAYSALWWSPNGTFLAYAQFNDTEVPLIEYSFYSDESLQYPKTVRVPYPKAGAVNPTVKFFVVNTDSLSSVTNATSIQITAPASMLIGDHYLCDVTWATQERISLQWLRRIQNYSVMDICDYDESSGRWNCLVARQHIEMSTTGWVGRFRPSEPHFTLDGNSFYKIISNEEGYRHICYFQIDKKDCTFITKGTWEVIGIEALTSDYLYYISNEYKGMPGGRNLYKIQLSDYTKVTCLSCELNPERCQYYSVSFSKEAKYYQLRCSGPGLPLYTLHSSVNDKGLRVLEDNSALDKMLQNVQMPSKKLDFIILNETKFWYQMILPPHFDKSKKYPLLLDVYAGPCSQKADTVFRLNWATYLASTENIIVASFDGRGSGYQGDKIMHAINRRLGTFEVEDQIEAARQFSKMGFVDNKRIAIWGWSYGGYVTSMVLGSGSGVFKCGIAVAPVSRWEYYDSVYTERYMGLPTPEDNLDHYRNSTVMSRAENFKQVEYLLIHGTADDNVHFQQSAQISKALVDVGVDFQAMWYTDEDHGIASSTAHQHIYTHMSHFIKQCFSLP
Protocol: Synthetic GLP-1 peptides (SEQ ID NO:1syn, SEQ ID SEQ ID NO:7rec, SEQ ID NO:8syn) were incubated at concentrations of 20 ng/ml with human plasma at 37° C. and 5% CO2 for 3 hours. Dipeptidylpeptidase activity of the plasma was inhibited by a DPP-IV inhibitor (#DPP4, Biotrend).

Rin-5F cells = assay: Anti-apoptotic efficacy, cycloheximid-induced apoptosis, AlamarBlue; format: cell-based, rat; settings: 24 hours
Protocol: Apoptosis is induced in RIN-5F cells by addition of the protein biosynthesis inhibitor cycloheximid (CHX) in a final of 10 μg/ml and 100 μg/ml respectively.
40.000 Rin-5F cells were seeded per 96 well and cultivated for 2 days in RPMI supplemented with 1% L-Glutamin and 10% fetal calf serum. […] After 24 hours cell viability is quantified using AlamarBlue.

| Molecule | stability in human plasma (active GLP, ELISA) (DPP-IV) | cell viability (Rin-5F cells; different concentrations, CHX 10 μg/ml and 100 μg/ml) | anti-apoptotic effect (Rin-5F cells; in the presence of 1 nM, cycloheximid, serumfree, p<0.01) |
| --- | --- | --- | --- |
| GLP-1 (7-37)-IP2-RR-GLP1(7-37) [SEQ ID NO:6] | significantly stabilized | – | – |
| HAEGTFTSDVSSYLEGQAAKEFIAWLVKGRGRRDFPEEVAIAEELG [SEQ ID NO:8, GLP-1 (7-37)-IP2] | significantly stabilized | – | – |
| CM1: C-terminally elongated dimeric GLP-1 fusion peptide GLP-1 (7-37)-IP2-GLP-1 (7-37) produced by construct #217 | – | significant (p<0.01) increase of cell viability | significant anti-apoptotic effect |
| GLP-1 (7-37)-IP2-RR-GLP2 (protein, Description of sequence SEQ ID No 7 (ID7rec, CM2) corresponds to GLP-1(7-37)-IP2-RR-GLP2, 83 aa, 9,4 kD, 83 aa, recombinant) HAEGTFTSDVSSYLEGQAAKEFIAWLVKGRGRRDFPEEVAIAEELGRRHADGSFSDEMSTILDNLATRDFINWLIQTKITDKK | significantly stabilized | – | – |
